Test results reported in patent US20240368133A1, “Compounds for the Treatment of Pain, in Particular, Neuropathic Pain, and/or Other Diseases or Disorders that are Associated with AT2R and/or AT2R Mediated Signaling” (Confo Therapeutics N.V., priority 2021, published 2024).

Assays:
Assay type in all cases: in vitro ADME
[1] = PAMPA (Parallel Artificial Membrane Permeability Assay), GIT model
Excerpt: The Parallel Artificial Membrane Permeability Assay (PAMPA) is used as an in vitro model of passive, transcellular permeation. PAMPA eliminates the added complexities of active transport, allowing ranking compounds just based on a simple membrane permeability property. This simple assay also allows evaluation of permeability over a large pH range, which is valuable for a preliminary understanding of how orally delivered compounds might be absorbed across the entire gastrointestinal tract. Depending upon the types of lipids used and other experimental conditions, PAMPA may be designed to model absorption in gastrointestinal tract (PAMPA-GIT), blood-brain barrier penetration (PAMPA-BBB) or skin penetration (Skin PAMPA).
All steps of the PAMPA were carried out according to pION Inc. PAMPA Explorer™ Manual. The main principle of the assay is the incubation of compound in donor chamber (a well in Donor Plate) with aqueous buffer, which is separated from acceptor chamber (a well in Acceptor Plate) with another buffer by a phospholipid or hydrocarbon membrane fixed on a filter support. After the test, concentrations in the corresponding donor and acceptor wells are measured and permeability is calculated.
GIT model was simulated using GIT-0 phospholipid mix. Verapamil and quinidine (high permeability) and ranitidine (low permeability) were used as reference compounds. All compounds were tested in triplicates.
Solutions of the test and reference compounds were added into the Donor Plate wells in Prisma HT buffer (pH 7.4). Acceptor Sink Buffer was added into each well of the Acceptor Plate. Incubation was done at room temperature for 4 hours without stirring. After incubation, aliquots from both plates were transferred to optic UV-Vis plates and optic plates were read on microplate reader in absorbance mode in the range of 202-500 nm with 4 nm step. Compounds with low UV-Vis signal were detected by LC-MS/MS method (API 3000 (PE Sciex)). Both the positive and negative ion modes of the TurboIonSpray ion source were used. Acquisition and analysis of the data were performed using Analyst 1.5.2 software (PE Sciex). The apparent permeability coefficient was calculated according to the equation shown below:
with: • VD=volume of transport buffer in donor compartment • A=surface area of the lipids in the insert (effective growth area of the insert—0.3 sq.cm) • t=time of the assay, seconds • Cdon=final concentration of test compound in the donor compartment • Cref=starting concentration of test compound in the donor compartment • εa=apparent filter porosity, equals to 0.76
[formula] • Cacc=final concentration of test compound in the […] compartment • τss=steady state lag time, estimated as (54RM+1)×60 s
Values of Cdon/Cref and Cacc/Cref are practically calculated using optical absorbance data. Mass retention by the lipid membrane is a normal condition in PAMPA assays for hydrophobic compounds but high levels of the mass retention makes compounds more permeable in vivo than it could be predicted from PAMPA assay. Mass retention was calculated as follows:
• [drug]acc=final OD of test compound in acceptor well • [drug]d=starting OD of test compound in a donor well • [drug]fd=final OD of test compound in a donor well

[2] = Metabolic stability in hepatocytes, rat; conditions: hepatocytes (cryopreserved), read-out: Rat Clint (μL/min/10^6 cells)
Protocol: (§1) The aim of this assay is to determine the metabolic stability of the compound in hepatocytes (cryopreserved) of different species (mouse CD1, rat Sprague Dawley, dog Beagle). Low hepatocyte stability may result in the formation of unwanted metabolites, high clearance, and therefore is not desirable. The decrease in parent was assessed by measuring the percentage remaining by LC-MS/MS analysis. The batches of hepatocytes were tested for quality control using Testosterone, Umbelliferone and Caffeine as reference compounds.
(§2) A 10 mM stock solution of test compound in DMSO was first diluted in DMSO to 3 mM, and then in modified Krebs-Henseleit buffer (Sigma, K3753) to 5 μM. This compound dilution was added to a suspension of pooled cryopreserved hepatocytes (BioIVT) at 37° C. under gentle shaking. Final reaction conditions were: 1 μM of test compound, <0.1% DMSO, 0.5 million viable hepatocytes/mL, and 75 μL incubation volume.
(§3) After 0, 10, 20, 45, 90, 120 and 180 min of incubation, the reaction was terminated with 3 volumes of MeCN:MeOH (2:1) containing diclofenac as analytical internal standard. Samples were mixed, centrifuged and the supernatant analyzed by LC-MS/MS (systems API4000). The instrument responses (ratios of test compound and internal standard peak areas) were referenced to the zero time point samples (considered as 100%) in order to determine the percentage of compound remaining. Plots of percentage compound remaining were used to determine the intrinsic clearance in the hepatocyte incubations.
(§4) Testosterone (1 μM) and Umbelliferone (1 μM) and Caffeine (1 μM) were used as reference compounds, being unstable and stable compounds respectively. If the hepatocyte stability values for these controls are not in the range determined by the historical data, the assay is not validated.

[3] = Metabolic stability in hepatocytes, mouse; conditions: hepatocytes (cryopreserved), read-out: Mouse Clint (μL/min/10^6 cells)
Protocol: as §1, §2, §3, §4

Compound | Mass retention (%) [1] [%] | Permeability Papp, Log10 (10^−6 cm/s) [1] | hepatocyte CLint [2] [µL/min/1e6 cells] | hepatocyte CLint [3] [µL/min/1e6 cells]
CCCCOC(=O)NS(=O)(=O)c1ccc(C(F)(F)F)cc1N1CCN(Cc2nc3ccccc3n2C)CC1 [Compound A-09, butyl N-[2-[4-[(1-methylbenzimidazol-2-yl)methyl]piperazin-1-yl]-4-(trifluoromethyl)phenyl]sulfonylcarbamate] | 10 | <−7 Log10 (10^−6 cm/s) |  | 
CCCCNC(=O)NS(=O)(=O)c1ccc(C(F)(F)F)cc1N1CCN(Cc2nc3ccccc3n2C)CC1 [Compound A-10, 1-butyl-3-[2-[4-[(1-methylbenzimidazol-2-yl)methyl]piperazin-1-yl]-4-(trifluoromethyl)phenyl]sulfonyl-urea] | 8 | <−7 Log10 (10^−6 cm/s) |  | 
CCCCNC(=O)NS(=O)(=O)c1ccc(C)cc1N1CCN(Cc2nc3ccccc3n2C)CC1 [Compound A-12, 1-butyl-3-[4-methyl-2-[4-[(1-methylbenzimidazol-2-yl)methyl]piperazin-1-yl]phenyl]sulfonyl-urea] | 7 | <−7 Log10 (10^−6 cm/s) |  | 
CC(C)Cc1cc(F)c(-c2nn[nH]n2)c(N2CCN(Cc3cccnn3)C(C)C2)c1 (stereo not drawn) [Compound A-173, 3-[[4-[3-fluoro-5-isobutyl-2-(2H-tetrazol-5-yl)phenyl]-2-methyl-piperazin-1-yl]methyl]pyridazine] |  |  | 2 | 4
CC(C)Cc1cc(F)c(-c2nn[nH]n2)c(N2CCN(Cc3cccnn3)[C@@H](C)C2)c1 [Compound A-174, 3-[[(2S)-4-[3-fluoro-5-isobutyl-2-(2H-tetrazol-5-yl)phenyl]-2-methyl-piperazin-1-yl]methyl]pyridazine] | 0 | −5.5 Log10 (10^−6 cm/s) | 10.5 | < 5.4
CCC1CN(c2cc(CC(C)C)cc(F)c2-c2nn[nH]n2)CCN1Cc1cccnn1 (stereo not drawn) [Compound A-178, 3-[[2-ethyl-4-[3-fluoro-5-isobutyl-2-(2H-tetrazol-5-yl)phenyl]piperazin-1-yl]methyl]pyridazine] |  |  | 0.2 | 0.8
CCC1CN(Cc2cccnn2)CCN1c1cc(CC(C)C)cc(F)c1-c1nn[nH]n1 (stereo not drawn) [Compound A-181, 3-[[3-ethyl-4-[3-fluoro-5-isobutyl-2-(2H-tetrazol-5-yl)phenyl]piperazin-1-yl]methyl]pyridazine] |  |  | 1 | 1
CC(C)Cc1cc(F)c(-c2nn[nH]n2)c(N2CC(C)N(Cc3cccnn3)CC2C)c1 (stereo not drawn) [Compound A-183, 3-[[4-[3-fluoro-5-isobutyl-2-(2H-tetrazol-5-yl)phen-yl]-2,5-dimethyl-piperazin-1-yl]-methyl]pyridazine] |  |  | 2.6 | 2
CC(C)Cc1cc(F)c(-c2nn[nH]n2)c(N2CCN(Cc3ccccn3)[C@@H](C)C2)c1 [Compound A-217, (2S)-4-[3-fluoro-5-isobutyl-2-(2H-tetrazol-5-yl)phenyl]-2-methyl-1-(2-pyridylmethyl)piperazine] |  |  | 8.7 | 

More lines, now with the values ahead:

Mass retention (%) [1] [%] | Permeability Papp, Log10 (10^−6 cm/s) [1] | hepatocyte CLint [2] [µL/min/1e6 cells] | hepatocyte CLint [3] [µL/min/1e6 cells] | Compound
28 | <−7 Log10 (10^−6 cm/s) |  |  | CC(C)Cc1ccc(-c2nn[nH]n2)c(N2CCN(Cc3nc4ccccc4n3C)CC2)c1 [Compound A-20, 2-[[4-[5-isobutyl-2-(2H-tetrazol-5-yl)-phenyl]piperazin-1-yl]methyl]-1-meth-yl-benzimidazole]
24 | <−7 Log10 (10^−6 cm/s) |  |  | CC(C)Oc1ccc(-c2nn[nH]n2)c(N2CCN(Cc3nc4ccccc4n3C)CC2)c1 [Compound A-24, 2-[[4-[5-isopropoxy-2-(2H-tetrazol-5-yl)phenyl]piperazin-1-yl]methyl]-1-methyl-benzimidazole]
20 | −4.6 Log10 (10^−6 cm/s) |  |  | CC(C)Oc1ccc(-c2nn[nH]n2)c(N2CCN(Cc3nc4ccccc4c(=O)[nH]3)CC2)c1 [Compound A-32]
14 | −4.2 Log10 (10^−6 cm/s) |  |  | CC(C)Oc1ccc(-c2nn[nH]n2)c(N2CCN(Cc3nc4ccccc4s3)CC2)c1 [Compound A-51, 2-[[4-[5-isoprop-oxy-2-(2H-tetrazol-5-yl)phenyl]piper-azin-1-yl]methyl]-1,3-benzothiazole]
